Results as given in PubChem BioAssay (NCI).
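Assay format: 96-well plates, 48-hour exposure. TGI is the concentration that stops growth completely.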

Key:
Test in all cases: inhibition of tumour cell growth, NCI panel, 48 h
786-0 renal = test system: 786-0 renal
A498 renal = test system: A498 renal
A549 NSCLC = test system: A549 NSCLC
ACHN renal = test system: ACHN renal
BT-549 breast = test system: BT-549 breast
CAKI-1 renal = test system: CAKI-1 renal
CCRF-CEM leukemia = test system: CCRF-CEM leukemia
COLO 205 colon = test system: COLO 205 colon
DU-145 prostate = test system: DU-145 prostate
EKVX NSCLC = test system: EKVX NSCLC
HCC-2998 colon = test system: HCC-2998 colon
HCT-116 colon = test system: HCT-116 colon
HCT-15 colon = test system: HCT-15 colon
HL-60(TB) leukemia = test system: HL-60(TB) leukemia
HOP-62 NSCLC = test system: HOP-62 NSCLC
HS 578T breast = test system: HS 578T breast
HT29 colon = test system: HT29 colon
IGROV1 ovarian = test system: IGROV1 ovarian
K-562 leukemia = test system: K-562 leukemia
KM12 colon = test system: KM12 colon
LOX IMVI melanoma = test system: LOX IMVI melanoma
M14 melanoma = test system: M14 melanoma
MALME-3M melanoma = test system: MALME-3M melanoma
MCF7 breast = test system: MCF7 breast
MDA-MB-435 = test system: MDA-MB-435
MDA-N = test system: MDA-N
MOLT-4 leukemia = test system: MOLT-4 leukemia
NCI-H226 lung = test system: NCI-H226 lung
NCI-H23 lung = test system: NCI-H23 lung
NCI-H460 lung = test system: NCI-H460 lung
NCI-H522 lung = test system: NCI-H522 lung
NCI/ADR-RES ovarian = test system: NCI/ADR-RES ovarian
OVCAR-3 ovarian = test system: OVCAR-3 ovarian
OVCAR-4 ovarian = test system: OVCAR-4 ovarian
OVCAR-5 ovarian = test system: OVCAR-5 ovarian
OVCAR-8 ovarian = test system: OVCAR-8 ovarian
PC-3 prostate = test system: PC-3 prostate
RPMI-8226 leukemia = test system: RPMI-8226 leukemia
RXF 393 renal = test system: RXF 393 renal
SF-268 CNS = test system: SF-268 CNS
SF-295 CNS = test system: SF-295 CNS
SF-539 CNS = test system: SF-539 CNS
SK-MEL-2 melanoma = test system: SK-MEL-2 melanoma
SK-MEL-28 melanoma = test system: SK-MEL-28 melanoma
SN12C renal = test system: SN12C renal
SNB-19 CNS = test system: SNB-19 CNS
SNB-75 CNS = test system: SNB-75 CNS
SR leukemia = test system: SR leukemia
SW-620 colon = test system: SW-620 colon
T-47D breast = test system: T-47D breast
TK-10 renal = test system: TK-10 renal
U251 CNS = test system: U251 CNS
UACC-257 melanoma = test system: UACC-257 melanoma
UACC-62 melanoma = test system: UACC-62 melanoma
UO-31 renal = test system: UO-31 renal
MDA-MB-231 breast = test system: MDA-MB-231 breast
SK-MEL-5 melanoma = test system: SK-MEL-5 melanoma
SK-OV-3 ovarian = test system: SK-OV-3 ovarian
HOP-92 NSCLC = test system: HOP-92 NSCLC

Measured: TGI

O=c1[nH]nc(-c2ccc3ccccc3c2)[nH]1
64.4 µM: EKVX NSCLC
24.2 µM: HS 578T breast
not listed: MDA-MB-231 breast | SK-MEL-5 melanoma | SK-OV-3 ovarian | HOP-92 NSCLC
> 100 µM: all other assays above

COC(=O)C12CCCN1CCC2
not listed: A498 renal | HL-60(TB) leukemia | HS 578T breast | IGROV1 ovarian | OVCAR-8 ovarian | RPMI-8226 leukemia | SF-539 CNS | HOP-92 NSCLC
> 100 µM: all other assays above

Cc1cc2c(cc1Cl)SSc1cc(Cl)c(C)cc1S(=O)(=O)Nc1nc(N)nn1C(O)n1nc(N)nc1NS2(=O)=O
not listed: MDA-MB-435 | UACC-62 melanoma | MDA-MB-231 breast
> 10 µM: all other assays above

C#CCOC(=O)C=[N+]=[N-]
not listed: CAKI-1 renal | COLO 205 colon | HCC-2998 colon | HS 578T breast | NCI-H522 lung | NCI/ADR-RES ovarian | OVCAR-4 ovarian | SNB-75 CNS | TK-10 renal | SK-MEL-5 melanoma
> 10 µM: all other assays above
